PMC6268373, “Systematic Study of the Physicochemical Properties of a Homologous Series of Aminobisphosphonates” (Molecules, 2012)
Converted amounts (≈) assume the structure as drawn. Where two headings read alike, the source gives them in different places. Blank lines part the entries; values can stand above or below the compound they belong to.

Columns and labels:
[1] = Protonation constants by (traditional) potentiometric titration (TPT), SUPERQUAD; conditions: 0.1 M NaNO3, 25 °C; for pKa: TPT; for logβx ± 3σ, x = 1 (H3L−) / logβx ± 3σ, x = 2 (H4L) / logβx ± 3σ, x = 3 (H5L+) / logβx ± 3σ, x = −1 (HL3−) / logβx ± 3σ, x = −2 (L4−): overall protonation, zero level H2L2−
Text: Results were obtained from […] as overall stability constants (log β values); following the chosen zero level H2L^2−. This zero level H2L^2− was chosen in the calculations to avoid any accumulation of errors of protonation constants at different pH ranges. The log β results for reactions (4) and (5) obtained in the final refinements are listed in Table S3 (see Supporting Information) with error limits (±3σ), number of points/number of titrations and χ^2/Σ statistics.
The details of the experiments using (traditional) potentiometric titration are presented in the Supporting Information. The results of the determination by Sirius instrument are shown in the Supporting Information. Potentiometric titrations of the compounds were performed with the PCA200 apparatus (Sirius Analytical Instruments Ltd, Forest Row, East Sussex, UK).
Table S2. The effect of pH on aqueous solubility (mg/L) of aminoalkylbis(phosphonates) […]
Solubility (g/L) of Compound
Determination of the Protonation Constants Using (traditional) Potentiometric Titration. Reagents:
Aqueous 0.1 M NaOH was prepared from Titrisol ampoules (Merck) and 0.1 M HNO3 from Convol ampoules (BDH). The background solution was prepared by dissolving NaNO3 in deionised water.
The NaNO3 and NaCl used in reference electrode were p.a. grade (Merck). The water used in the dilutions and titration solutions was purified with Milli-RO and Milli-Q water purification systems […]
Potentiometric measurements: The protonation equilibria was studied in aqueous 0.1 M NaNO3 at 25.0 ± 0.1 °C through a series of potentiometric EMF titrations carried out with a Schott-Geräte GmbH […]
The cell arrangement for the measurement of the hydrogen ion concentration [H+] was as follows:
−RE […] equilibrium solution […] GE+ (1) where GE denotes a glass electrode (Schott N2680), and RE is Hg, Hg2Cl2 […] 0.01 M NaCl, 0.09 M NaNO3. Expression (2) is valid assuming that the activity coefficients are constant.
The cell parameter E0 and the liquid junction coefficient jH, valid in acidic solutions, were determined for each titration by adding a known amount of HNO3 to the background electrolyte. The value of the liquid junction coefficient jOH, valid in basic solutions, was determined periodically. Only stable EMF readings were used in the calculations.
During the measurements of the protonation equilibria, aqueous 0.1 M NaOH or 0.1 M HNO3 was […]
Four to eight independent titrations were carried out for each ligand. The number of data points used in […]
Data treatment: Protonation and deprotonation of the ligands were controlled by addition of HNO3 or NaOH. The curves of ZH versus pH were drawn to visualize the experimental data sets. ZH describes the average number of H+ ions added or liberated per mole of ligand and is given by the relationship […]
where CH denotes the total concentration of protons calculated over the zero level H2L2−.
In the evaluation of the equilibrium constants, the following two-component equilibria were utilized:
H2L2− ⇋ H2-xL(2+x)– + xH+ , x = 1–2; β–x (4) xH+ + H2L2− ⇋ Hx+2Lx–2, x = 1–3; βx (5)
Mathematical analysis of the systems involves a search for protonation models and equilibrium constants that best describe the experimental data. The calculations were carried out with the computer […]
1200). The sample standard deviation Σ and the χ2 statistics used as criteria in the selection of the models were those provided by the program. As a means to improve the confidence level, the error limits for log β values determined in this study are reported as three times the standard deviation estimated by the program.
Figure S2. ZH vs. pH for protonation of compounds (a) 1; (b) 2; (c) 3; (d) 4 and (e) 5.

[2] = Thermal analysis (TG/DTA and TGA 7); type: physicochemical; conditions: for Td / Td (decomposition onset): air; for Td: 5 °C/min; for Temp. range of 1st cleavage: lower limit taken at 0.5 wt-%; for Td (decomposition onset): average from both instruments, heating rate 5 °C/min
Experimental: Thermal decomposition paths with evaluation of crystal water content were obtained parallel with two instruments; Perkin Elmer STA 6000 thermogravimetric TG/DTA and Perkin Elmer TGA 7 analyzers (Perkin Elmer, Massachusetts, USA). Measurements were carried out in an open platinum crucible (the higher 5 mm crucible was used in TG/DTA and a shallower 2 mm crucible in TGA 7) under air atmosphere (flow rate of 45 mL/min) with a heating rate of 5 °C/min over the temperature range of 25−700 °C. The temperature calibration of STA 6000 was made using melting points of indium (156.60 °C) and zinc (419.5 °C) standards. For TGA 7 magnetic Curie-point calibration technique (Alumel, Ni, Perkalloy, Fe) was used. The weight balance of both instruments was calibrated by measuring a standard weight of 50 mg at room temperature. The sample weights used in the measurements were about 4–8 mg, and for each bisphosphonate, it was attempted to keep the same on both instruments. The melting/dehydration/decomposition behavior of the compounds was also visually monitored using a Stuart Scientific SMP3 melting point apparatus.

[3] = cited from earlier work; for logK, pKa3: H2L2− + H+ ⇋ H3L−; for logK, pKa2: H3L− + H+ ⇋ H4L; for logK, pKa4: HL3− + H+ ⇋ H2L2−
[4] = Effect of pH on aqueous solubility; conditions: 21 °C, thermodynamic from solid
Experimental: (§1) A Jasco V-530 UV/Vis spectrophotometer was used for phosphorus determination at 880 nm wavelength. Filtered liquid samples were diluted to the appropriate volume with Milli-Q water and were digested with the persulphate oxidation technique in acidic medium at elevated temperature to convert aminobisphosponates to orthophosphate. In an acidic medium, ammonium molybdate and antimony potassium tartrate react with orthophosphate to form a phosphomolybdic acid that is reduced to intensively colored molybdenum blue by ascorbic acid [30].
(§2) The mixture containing an excess of the studied compound was first agitated for predetermined time with magnetic stirrer and before taking the sample mixture was allowed to stand for 24 h without stirring. The sample (about 5 mL) was taken from liquid above the solids, pH was measured and the sample was filtered through 0.2 µm membrane filter to remove any possible insoluble particles. The phosphorus concentration in the filtered sample solution was determined by using the spectrophotometric method described above.

[5] = Effect of temperature on aqueous solubility; conditions: thermodynamic from solid
Experimental: as §1, §2

[6] = pKa determination with Sirius instrument (PCA200)
[7] = Aqueous solubility of saturated solution at 21 °C (phosphorus determination by molybdenum blue spectrophotometry); conditions: 21 °C; for solubility at 30 min: water, thermodynamic from solid; for pH of saturated solution: saturated aqueous solution, agitation time 30 min
Experimental: as §1, §2

[8] = aqueous 0.1 M NaNO3, log K, pKa1 (H4L + H+ ⇋ H5L+), approximate values
[9] = aqueous 0.1 M NaNO3, log K, pKa2 (H3L− + H+ ⇋ H4L)
[10] = aqueous 0.1 M NaNO3, log K, pKa3 (H2L2− + H+ ⇋ H3L−)
[11] = aqueous 0.1 M NaNO3, log K, pKa4 (HL3− + H+ ⇋ H2L2−)
[12] = aqueous 0.1 M NaNO3, log K, pKa5 (L4− + H+ ⇋ HL3−)

Structure (SMILES): NCCCCCC(O)(P(=O)(O)O)P(=O)(O)O [Compound 4, (6-Amino-1-hydroxyhexylidene)bisphosphonic acid, reference compound]
- pKa ([1]; log K, pKa1 (H4L + H+ ⇋ H5L+), approximate values): 0.94
- pKa ([1]; log K, pKa2 (H3L− + H+ ⇋ H4L)): 2.38
- pKa ([1]; log K, pKa3 (H2L2− + H+ ⇋ H3L−)): 6.62
- pKa ([1]; log K, pKa4 (HL3− + H+ ⇋ H2L2−)): 10.9
- pKa ([1]; log K, pKa5 (L4− + H+ ⇋ HL3−)): 11.9
- logβx ± 3σ, x = 1 (H3L−) [1]: 6.62 ± 0.02
- logβx ± 3σ, x = 2 (H4L) [1]: 9.00 ± 0.03
- logβx ± 3σ, x = 3 (H5L+) [1]: 9.94 ± 0.12
- logβx ± 3σ, x = −1 (HL3−) [1]: −10.86 ± 0.02
- logβx ± 3σ, x = −2 (L4−) [1]: −22.80 ± 0.02
- Onset temperature of first cleavage ([2]; TG/DTA, higher crucible): 208 °C
- Td ([2]; TG/DTA, higher crucible): 208 °C
- Temp. range of 1st cleavage ([2]; TG/DTA, higher crucible): 196–260 °C
- Onset temperature of first cleavage ([2]; TGA 7, shallow crucible): 215 °C
- Td ([2]; TGA 7, shallow crucible): 215 °C
- Temp. range of 1st cleavage ([2]; TGA 7, shallow crucible): 183–251 °C
- Td (decomposition onset) [2]: 212 °C
- logK, pKa3 ([3]; ref 4): 6.50
- logK, pKa3 ([3]; ref 13): 5.49
- logK, pKa2 ([3]; ref 4): 2.45
- logK, pKa2 ([3]; ref 13): 2.90
- logK, pKa4 ([3]; ref 4): 10.66
- logK, pKa4 ([3]; ref 13): 8.63
- logK, pKa5 ([3]; L4− + H+ ⇋ HL3−, ref 13): 10.9
- solubility at 30 min ([4]; pH 0, aqueous buffer): 6340 µg/mL (≈ 22.9 mM)
- solubility at 30 min ([4]; pH 1, aqueous buffer): 3840 µg/mL (≈ 13.9 mM)
- solubility at 30 min ([4]; pH 2, aqueous buffer): 2900 µg/mL (≈ 10.5 mM)
- solubility at 30 min ([4]; pH 3, aqueous buffer): 2970 µg/mL (≈ 10.7 mM)
- solubility at 30 min ([4]; pH 4, aqueous buffer): 3090 µg/mL (≈ 11.1 mM)
- solubility at 30 min ([4]; pH 5, aqueous buffer): 3220 µg/mL (≈ 11.6 mM)
- solubility at 30 min ([4]; pH 6, aqueous buffer): 3390 µg/mL (≈ 12.2 mM)
- solubility at 30 min ([4]; pH 7, aqueous buffer): 3420 µg/mL (≈ 12.3 mM)
- solubility at 30 min ([4]; pH 8, aqueous buffer): 3530 µg/mL (≈ 12.7 mM)
- solubility at 30 min ([4]; pH 9, aqueous buffer): 3080 µg/mL (≈ 11.1 mM)
- solubility at 30 min ([4]; pH 10, aqueous buffer): 3180 µg/mL (≈ 11.5 mM)
- solubility at 30 min ([4]; pH 11, aqueous buffer): 3380 µg/mL (≈ 12.2 mM)
- solubility at 24 h ([5]; 4 °C, water): 4470 µg/mL (≈ 16.1 mM)
- solubility at 24 h ([5]; 7.6 °C, water): 4600 µg/mL (≈ 16.6 mM)
- solubility at 24 h ([5]; 21 °C, water): 5170 µg/mL (≈ 18.7 mM)
- solubility at 24 h ([5]; 30 °C, water): 5770 µg/mL (≈ 20.8 mM)
- solubility at 24 h ([5]; 40 °C, water): 7620 µg/mL (≈ 27.5 mM)
- solubility at 24 h ([5]; 50 °C, water): 9550 µg/mL (≈ 34.5 mM)
- pKa 2 (Sirius) [6]: 2.99
- pKa 3 (Sirius) [6]: 6.36
- pKa 4 (Sirius) [6]: 6.82
- solubility at 30 min [7]: 3420 µg/mL (≈ 12.3 mM)
- pH of saturated solution [7]: 2.26

- pKa [1, 8]: 1.08
- pKa [1, 9]: 2.52
- pKa [1, 10]: 6.75
- pKa [1, 11]: 10.7
- pKa [1, 12]: 11.7
- logβx ± 3σ, x = 1 (H3L−) [1]: 6.75 ± 0.03
- logβx ± 3σ, x = 2 (H4L) [1]: 9.27 ± 0.05
- logβx ± 3σ, x = 3 (H5L+) [1]: 10.35 ± 0.24
- logβx ± 3σ, x = −1 (HL3−) [1]: −10.67 ± 0.03
- logβx ± 3σ, x = −2 (L4−) [1]: −22.32 ± 0.02
- Onset temperature of first cleavage ([2]; TG/DTA, higher crucible): 193 °C
- Td ([2]; TG/DTA, higher crucible): 193 °C
- Temp. range of 1st cleavage ([2]; TG/DTA, higher crucible): 182–212 °C
- Onset temperature of first cleavage ([2]; TGA 7, shallow crucible): 197 °C
- Td ([2]; TGA 7, shallow crucible): 197 °C
- Temp. range of 1st cleavage ([2]; TGA 7, shallow crucible): 175–222 °C
- Td (decomposition onset) [2]: 195 °C
- solubility at 24 h ([5]; Milli-Q water, unbuffered, 4 °C): 1850 µg/mL (≈ 6.06 mM)
- solubility at 24 h ([5]; Milli-Q water, unbuffered, 7.6 °C): 1900 µg/mL (≈ 6.23 mM)
- solubility at 24 h ([5]; Milli-Q water, unbuffered, 21 °C): 2100 µg/mL (≈ 6.88 mM)
- solubility at 24 h ([5]; Milli-Q water, unbuffered, 30 °C): 2270 µg/mL (≈ 7.44 mM)
- solubility at 24 h ([5]; Milli-Q water, unbuffered, 40 °C): 2400 µg/mL (≈ 7.86 mM)
- solubility at 24 h ([5]; Milli-Q water, unbuffered, 50 °C): 3450 µg/mL (≈ 11.3 mM)
- pKa 2 (Sirius) [6]: 3.10
- pKa 3 (Sirius) [6]: 6.46
- pKa 4 (Sirius) [6]: 7.12
- pKa 5 (Sirius) [6]: 10.77
- solubility at 30 min ([7]; Milli-Q water, unbuffered): 2100 µg/mL (≈ 6.88 mM)
- pH of saturated solution [7]: 2.61
Structure (SMILES): NCCCCCCCC(O)(P(=O)(O)O)P(=O)(O)O [Compound 5, (8-Amino-1-hydroxyoctylidene)bisphosphonic acid]

- pKa [1, 8]: 0.62
- pKa [1, 9]: 2.3
- pKa [1, 10]: 6.44
- pKa [1, 11]: 10.8
- pKa [1, 12]: 12.1
- logβx ± 3σ, x = 1 (H3L−) [1]: 6.44 ± 0.02
- logβx ± 3σ, x = 2 (H4L) [1]: 8.74 ± 0.03
- logβx ± 3σ, x = 3 (H5L+) [1]: 9.36 ± 0.51
- logβx ± 3σ, x = −1 (HL3−) [1]: −10.78 ± 0.02
- logβx ± 3σ, x = −2 (L4−) [1]: −22.83 ± 0.03
- Onset temperature of first cleavage ([2]; TG/DTA, higher crucible): 217 °C
- Td ([2]; TG/DTA, higher crucible): 217 °C
- Temp. range of 1st cleavage ([2]; TG/DTA, higher crucible): 198–252 °C
- Onset temperature of first cleavage ([2]; TGA 7, shallow crucible): 224 °C
- Td ([2]; TGA 7, shallow crucible): 224 °C
- Temp. range of 1st cleavage ([2]; TGA 7, shallow crucible): 195–265 °C
- Td (decomposition onset) [2]: 220 °C
- pKa 2 (Sirius) [6]: 1.92
- pKa 3 (Sirius) [6]: 2.42
- pKa 4 (Sirius) [6]: 6.40
- solubility at 30 min ([7]; Milli-Q water, unbuffered): 4010 µg/mL (≈ 15.2 mM)
- pH of saturated solution [7]: 2.22
Structure (SMILES): NCCCCC(O)(P(=O)(O)O)P(=O)(O)O [Compound 3, (5-Amino-1-hydroxypentylidene)bisphosphonic acid]
